Patent publication US20080287398A1, “COLD MENTHOL RECEPTOR-1 ANTAGONISTS” (priority 2007, published 2008)
pIC50: −log10 of the molar value. Read-outs that look alike come from different tables or passages of the source.

Target: T1, canine TRPM8 (Canis lupus familiaris, UniProt Q1A7N1)
T1 construct: expressed in transfected cells
Experiment: In vitro canine TRPM8 functional assay (Ca2+-sensitive dye, FLIPR/FDSS, icilin activation)
Type: cell-based
Conditions: HEK293 cells expressing canine TRPM8, icilin activation; for % I (5 μM): 5 μM compound; for pIC50 / IC50: eight-point dose-response; for pIC50: read-out: IC50; for inhibition at 1 µM: HEK293, read-out: % I (1 μM), 1 μM compound; for IC50: IC50 (μM); for % I (1 μM): 1 μM compound
Method in brief: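 HEK293 cells stably expressing canine TRPM8, loaded with Calcium 3 dye, preincubated with compound for 5 min before icilin at a concentration giving ~80% maximal response. Ca2+ fluorescence by FLIPR or FDSS; basal-subtracted, normalized to % maximal response, quadruplicate wells, sigmoidal fit for EC50/IC50.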

T1 sequence (Q1A7N1 1-1104): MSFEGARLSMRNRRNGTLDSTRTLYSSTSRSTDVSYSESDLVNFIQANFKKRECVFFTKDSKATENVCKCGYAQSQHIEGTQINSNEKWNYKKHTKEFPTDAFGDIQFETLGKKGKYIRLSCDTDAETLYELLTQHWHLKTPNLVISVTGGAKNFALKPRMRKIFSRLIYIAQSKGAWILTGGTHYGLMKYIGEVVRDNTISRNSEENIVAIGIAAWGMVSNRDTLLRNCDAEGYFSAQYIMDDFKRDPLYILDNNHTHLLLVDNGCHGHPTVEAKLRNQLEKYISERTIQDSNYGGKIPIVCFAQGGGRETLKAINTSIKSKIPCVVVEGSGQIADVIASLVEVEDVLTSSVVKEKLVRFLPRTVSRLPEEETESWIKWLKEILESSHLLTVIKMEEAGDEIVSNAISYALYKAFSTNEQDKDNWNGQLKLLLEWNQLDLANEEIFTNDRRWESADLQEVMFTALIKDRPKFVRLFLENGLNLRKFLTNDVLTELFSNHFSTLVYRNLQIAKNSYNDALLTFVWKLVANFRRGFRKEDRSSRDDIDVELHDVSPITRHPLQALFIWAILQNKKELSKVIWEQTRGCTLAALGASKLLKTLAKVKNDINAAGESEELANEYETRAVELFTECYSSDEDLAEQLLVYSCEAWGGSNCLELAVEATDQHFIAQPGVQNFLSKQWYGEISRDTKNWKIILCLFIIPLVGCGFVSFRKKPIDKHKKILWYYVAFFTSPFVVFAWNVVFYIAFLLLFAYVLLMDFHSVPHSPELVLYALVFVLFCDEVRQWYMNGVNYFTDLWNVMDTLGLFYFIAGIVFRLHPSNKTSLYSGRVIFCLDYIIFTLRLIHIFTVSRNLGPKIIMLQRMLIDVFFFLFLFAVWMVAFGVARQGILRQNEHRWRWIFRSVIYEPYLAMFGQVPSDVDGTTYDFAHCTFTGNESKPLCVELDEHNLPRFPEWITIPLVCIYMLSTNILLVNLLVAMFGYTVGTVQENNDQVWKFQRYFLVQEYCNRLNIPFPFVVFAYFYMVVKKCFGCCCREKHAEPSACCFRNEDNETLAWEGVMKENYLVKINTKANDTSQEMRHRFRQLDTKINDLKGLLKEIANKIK

Structure (SMILES)	pIC50	% I (1 μM) [%]	also measured
CCOP(=O)(Cc1cc2ccccc2s1)OCc1ccc(F)cc1 (centres unmarked) [Cpd 107]	5.89	–	% I (5 μM): 99%
CCOP(=O)(Cc1cc2ccccc2s1)OCc1ccccc1F (centres unmarked) [Cpd 109, Benzo[b]thiophen-2-ylmethyl-phosphonic acid ethyl ester 2-fluoro-benzyl ester]	–	–	% I (5 μM): 98%; inhibition at 1 µM: 17%; IC50: 1.47 µM
CCOP(=O)(Cc1cc2ccccc2s1)OCc1ccccc1Br (centres unmarked) [Cpd 110]	5.63	11	% I (5 μM): 96%
CCOP(=O)(Cc1cc2ccccc2s1)OCc1ccccc1 (centres unmarked) [Cpd 111]	–	14	–
CCOP(=O)(OCC)C(Cc1cc2c(cc1Cl)OCO2)c1cc2ccccc2s1 (centres unmarked) [Cpd 112]	–	42	–
CCOP(=O)(OCC)C(Cc1cc(C(F)(F)F)ccc1C(F)(F)F)c1sc2ccccc2c1C (centres unmarked) [Cpd 113]	–	25	–
CCOP(=O)(OCC)C(Cc1ccccc1F)c1sc2ccccc2c1CN(C)C (centres unmarked) [Cpd 114, [1-(3-Dimethylaminomethyl-benzo[b]thiophen-2-yl)-2-(2-fluoro-phenyl)-ethyl]-phosphonic acid diethyl ester]	–	–	inhibition at 1 µM: 15%
CCOP(=O)(OCC)C(Cc1ccccc1-c1ccccc1)c1sc2ccccc2c1C (centres unmarked) [Cpd 115]	–	69	–
CCOP(=O)(OCC)C(Cc1ccc(F)c(F)c1)c1sc2c(C(F)(F)F)cccc2c1C (centres unmarked) [Cpd 116]	–	64	–
CCOP(=O)(OCC)C(Cc1ccc(F)c(F)c1)c1sc2cc(Cl)ccc2c1C1CCCC1 (centres unmarked) [Cpd 117, [1-(6-Chloro-3-cyclopentyl-benzo[b]thiophen-2-yl)-2-(3,4-difluoro-phenyl)-ethyl]-phosphonic acid diethyl ester]	–	–	inhibition at 1 µM: 28%
CCOP(=O)(OCC)C(Cc1ccc(F)c(F)c1)c1c(C)c2ccccc2[s+]1[O-] (centres unmarked) [Cpd 118]	–	23	–
CC(C)OP(=O)(OC(C)C)C(Cc1ccc(F)c(F)c1)c1cc2ccccc2o1 (centres unmarked) [Cpd 120]	6.41	102	–
CC(C)OP(=O)(OC(C)C)C(Cc1cc(F)cc(F)c1)c1cc2ccccc2s1 (centres unmarked) [Cpd 121]	6.46	103	–
CC(C)OP(=O)(OC(C)C)C(Cc1cccc(F)c1F)c1cc2ccccc2s1 (centres unmarked) [Cpd 122]	6.46	102	–
CCC(C)P(=O)(C(C)CC)C(Cc1ccc(F)c(F)c1)c1oc2ccccc2c1Br (centres unmarked) [Cpd 123]	6.55	103	–
CC(C)OP(=O)(OC(C)C)C(Cc1ccc(F)c(F)c1)c1oc2ccccc2c1Br (centres unmarked) [Cpd 124]	7.31	103	–
CC(C)OP(=O)(OC(C)C)C(Cc1ccc(F)c(C(F)(F)F)c1)c1cc2ccccc2s1 (centres unmarked) [Cpd 125]	6.41	103	–
CC(C)OP(=O)(OC(C)C)C(Cc1cc(C(F)(F)F)cc(Cl)c1F)c1cc2ccccc2s1 (centres unmarked) [Cpd 126]	6.39	100	–
CCOP(=O)(OCC)C(Cc1ccc(F)c(F)c1)c1sc2ccccc2c1-c1cccnc1F (centres unmarked) [Cpd 128, {2-(3,4-Difluoro-phenyl)-1-[3-(2-fluoro-pyridin-3-yl)-benzo[b]thiophen-2-yl]-ethyl}-phosphonic acid diethyl ester]	–	–	inhibition at 1 µM: 100%; IC50: 0.02 µM
CCOP(=O)(OCC)C(Cc1ccc(F)c(F)c1)c1sc2ccccc2c1-c1ccc(F)nc1 (centres unmarked) [Cpd 130, {2-(3,4-Difluoro-phenyl)-1-[3-(6-fluoro-pyridin-3-yl)-benzo[b]thiophen-2-yl]-ethyl}-phosphonic acid diethyl ester]	–	–	inhibition at 1 µM: 100%; IC50: 0.11 µM
CCOP(=O)(OCC)C(Cc1ccc(F)c(F)c1)c1cc2cccnc2s1 (centres unmarked) [Cpd 131]	–	28	–
